Changes are numbered by the printed parent chain.
Columns and labels:
FL-AR^V684A = molecular target: T1, FL-AR^V684A (Homo sapiens, UniProt P10275, V685A); assay: Luciferase reporter assay in PC3 cells, AR V684A; format: cell-based; conditions: read-out: IC50 toward FL-AR^V684A
T1 construct: toward full-length (FL)-AR^WT and FL-AR^V684A; expressed in transfected cells; host or cells: PC3
T1 sequence (P10275 1-920 V685A): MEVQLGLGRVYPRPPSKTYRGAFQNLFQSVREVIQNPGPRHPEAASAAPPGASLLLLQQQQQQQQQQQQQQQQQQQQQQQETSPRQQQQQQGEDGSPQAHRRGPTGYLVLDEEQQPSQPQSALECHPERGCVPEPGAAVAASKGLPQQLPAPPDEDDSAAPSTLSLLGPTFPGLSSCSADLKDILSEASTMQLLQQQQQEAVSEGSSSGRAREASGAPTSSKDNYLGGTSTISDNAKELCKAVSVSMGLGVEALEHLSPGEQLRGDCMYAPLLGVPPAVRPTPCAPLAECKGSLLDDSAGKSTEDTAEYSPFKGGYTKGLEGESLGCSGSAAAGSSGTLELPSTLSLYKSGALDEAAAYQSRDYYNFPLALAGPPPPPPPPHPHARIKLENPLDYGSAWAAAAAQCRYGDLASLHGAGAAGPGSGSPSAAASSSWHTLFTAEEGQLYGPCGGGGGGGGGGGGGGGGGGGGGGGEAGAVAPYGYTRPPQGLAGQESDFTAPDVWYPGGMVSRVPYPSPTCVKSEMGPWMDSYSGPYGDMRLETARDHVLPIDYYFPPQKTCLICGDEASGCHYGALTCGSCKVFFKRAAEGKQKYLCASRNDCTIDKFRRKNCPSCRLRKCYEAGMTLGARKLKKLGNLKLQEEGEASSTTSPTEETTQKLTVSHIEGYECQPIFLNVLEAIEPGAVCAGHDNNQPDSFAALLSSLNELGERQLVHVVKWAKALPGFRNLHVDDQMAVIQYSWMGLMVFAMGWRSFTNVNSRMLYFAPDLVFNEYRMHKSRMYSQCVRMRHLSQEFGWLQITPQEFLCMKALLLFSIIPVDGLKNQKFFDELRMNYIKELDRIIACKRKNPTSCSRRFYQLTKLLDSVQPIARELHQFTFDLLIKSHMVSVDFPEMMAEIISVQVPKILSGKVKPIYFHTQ
Procedure: Detection principles: A reporter system for detecting the activities of firefly luciferase. To quantitatively detect the interaction between transcription factors and target promoters, the fluorescent intensities are detected to quantitatively evaluate the activities of firefly luciferase.
Methods: PC3 cells (no endogenous AR) treated with DMEM media supplemented with 5% CSS for 48 hours. Then, the PC3 cells (1.2×10^4/well) were seeded into 96-well plates. After 16 hours, the PC3 cells were transfected with 20 ng/well plasmid and incubated for 20 min at room temperature. After 1 day incubation, the media in the wells was replaced, followed by the addition of various concentrations of compounds. After 48 hours, the culture medium was discarded and the cells were washed with 100 μL PBS, followed by addition of 30 μL 1×PLB and the 96-well plates was shaken on a shaker for 20 min to ensure complete lysis of the cells. Then, the cell lysis supernatant (20 μL/well) was transferred to a white opaque 96-well, and addition of 30 μL Luciferase Assay Reagent II to each well. Then, the fluorescent intensities of firefly luciferase were evaluated. Afterwards, 30 μL Stop&Glo Reagant was added to the wells, and the fluorescent intensities of […] evaluated.

AR = molecular target: T2, AR (Homo sapiens, UniProt P10275, T878A); assay: AR transcriptional activity, LNCaP-ARR2PB-eGFP reporter cells; format: cell-based; conditions: LNCaP-ARR2PB-eGFP cells, 5 nM DHT, 72 hours; read-out: IC50 AR transcriptional activities
T2 construct: into the androgen-dependent PCa cells (LNCaP); endogenous in cells; host or cells: LNCaP-ARR2PB-eGFP
T2 sequence (P10275 1-920 T878A): T1 sequence (P10275 1-920 V685A) with A685V, T878A
Text: Detection principles: We conducted a stable transfection of promoter ARR2PB known for its strong AR responsiveness, into the androgen-dependent PCa cells (LNCaP). The expression of enhanced green fluorescent protein (eGFP) is depending on the degree of activation of AR. Therefore, LNCaP-ARR2PB-eGFP cell line could quantitatively determine the AR antagonistic activities of the compounds by evaluating the expression of eGFP.

LNCaP xenograft = conditions: mouse, in vivo
Procedure: Methods: LNCaP cells were injected to the Male CB17 SCID mice (6-8 weeks old). Once tumor size reached target value, the mice were randomized into three groups with 6-8 mice per group. […] The mice weight and tumor volume were periodically recorded. Finally, the tumors were harvested.

With `CC(=O)Cc1nsc(NC(=O)c2cc(-c3cccc(C(F)(F)F)c3)oc2C)n1` [Compound A-1, 2-Methyl-N-(3-(2-oxopropyl)-1,2,4-thiadiazol-5-yl)-5-(3-(trifluoromethyl)phenyl)furan-3-carboxamide] the IC50 (FL-AR^V684A) was 60 nM, the IC50 (AR) was 30 nM and the mortality (LNCaP xenograft) was “no mortality”.

— US20240376091A1, “THIADIAZOLEAMIDE DERIVATIVES AND THEIR APPLICATIONS” (ZHEJIANG UNIVERSITY, priority 2021, published 2024)
